Laboratory results taken from article PMC6950571 (Marine Drugs, 2019).
Bridge positions count the residues as written; N and C are the ends. Peptide text beside a SMILES is read from it.

Molecular target: T1, rα3β2 nAChRs expressed in Xenopus laevis oocytes (Rattus norvegicus, UniProt P04757+P12390)
T1 construct: expressed in transfected cells; host or cells: Xenopus laevis oocytes, injected with α3 and β2 mRNA; clones from Dr. Steven Heinemann, Salk Institute
Experiment: cell-based
Conditions: SEM

T1 sequence (P04757 26-499 limits assumed): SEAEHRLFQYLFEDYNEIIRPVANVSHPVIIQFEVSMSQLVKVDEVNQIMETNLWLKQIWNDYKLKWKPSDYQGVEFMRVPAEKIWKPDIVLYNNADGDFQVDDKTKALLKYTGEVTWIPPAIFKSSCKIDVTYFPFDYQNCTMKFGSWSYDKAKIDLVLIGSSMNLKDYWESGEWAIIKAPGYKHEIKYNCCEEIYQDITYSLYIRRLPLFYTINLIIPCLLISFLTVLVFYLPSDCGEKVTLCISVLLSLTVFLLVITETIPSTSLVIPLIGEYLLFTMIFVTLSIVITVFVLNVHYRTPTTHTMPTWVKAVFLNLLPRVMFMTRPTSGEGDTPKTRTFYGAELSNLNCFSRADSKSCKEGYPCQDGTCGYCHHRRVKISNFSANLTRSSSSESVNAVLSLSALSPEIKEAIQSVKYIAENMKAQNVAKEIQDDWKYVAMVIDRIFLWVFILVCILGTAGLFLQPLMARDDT
T1 sequence (P12390 25-500 limits assumed): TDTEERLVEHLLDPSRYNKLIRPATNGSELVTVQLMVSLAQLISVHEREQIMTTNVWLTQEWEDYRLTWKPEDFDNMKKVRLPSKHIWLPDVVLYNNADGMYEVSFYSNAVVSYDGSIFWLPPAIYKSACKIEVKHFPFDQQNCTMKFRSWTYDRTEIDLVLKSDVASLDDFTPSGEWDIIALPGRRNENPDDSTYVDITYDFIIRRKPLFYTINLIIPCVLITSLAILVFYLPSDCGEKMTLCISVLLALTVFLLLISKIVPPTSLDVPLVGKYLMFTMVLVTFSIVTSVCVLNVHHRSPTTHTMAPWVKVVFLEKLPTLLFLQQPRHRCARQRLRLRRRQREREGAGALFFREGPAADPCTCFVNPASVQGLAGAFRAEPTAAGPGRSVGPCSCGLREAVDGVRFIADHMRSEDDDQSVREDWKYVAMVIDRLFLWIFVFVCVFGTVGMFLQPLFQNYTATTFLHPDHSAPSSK

`NCCCC[C@@H]1NC(=O)[C@H](CO)NC(=O)[C@H](CO)NC(=O)[C@H](CO)NC(=O)[C@H](Cc2c[nH]c3ccccc23)NC(=O)[C@H](Cc2ccc(O)cc2)NC(=O)[C@@H]2CSSC[C@H](NC(=O)[C@@H](NC(=O)[C@@H](N)Cc3c[nH]c4ccccc34)CSSC[C@@H](C(=O)O)NC(=O)[C@H](Cc3c[nH]c4ccccc34)NC1=O)C(=O)N[C@@H](CO)C(=O)N[C@@H](Cc1ccc(O)cc1)C(=O)N1CCC[C@H]1C(=O)NCC(=O)N2` [KTM] (H-WCCSYPGCYWSSSKWC-OH; disulfide 2-16, 3-8) showed an IC50 of 0.19 ± 0.02 nM.
